Where a name gives a salt, the structure may show the parent alone.
Legend:
[1] = tested on: Synaptosomes from guinea pig hippocampus; experiment: % Inhibition of AcH Release Assay (K+-evoked 3H-acetylcholine release); assay type: cell-based; conditions: synaptosomes pre-treated with 10 μM test compound prior to 65 mM K+ stimulation
Experimental: Synaptosomes from guinea pig hippocampus were incubated with 0.1 μM ^3H-choline and then subjected to repeated washes with buffer to remove unincorporated ^3H-choline. The synaptosomes were then treated with 65 mM K^+ for 30 seconds to elicit 3H-acetylcholine release.
To determine if a test compound will inhibit acetylcholine release, the synaptosomes were pre-treated with 10 μM of the test compound prior to the K+ stimulation. The decrease or increase in acetylcholine release was then measured by superfusion.
(§1) Both the Aβ aggregation assay as described in Example 55, particularly as run using the ^125I-Aβ1-40, and the % inhibition of AcH release assay as described in Example 56, were highly variable on a run-to-run basis. However, the relative activities of the tested compounds were reproducible.

[2] = molecular target: T1, fluo-Aβ1-40 (Homo sapiens, UniProt P05067); experiment: Aβ Aggregation Assay (Synthaloid plates, fluo-Aβ1-40); assay type: biochemical; conditions: 10 μM test compound, 100 nM fluo-Aβ1-40, 2.5 hr at room temperature; higher % = greater effectiveness at preventing aggregation
T1 construct: added 100 nM of fluo-Aβ1-40 in 100 μl
Experimental: Aβs are known to form aggregates leading to the formation of amyloid plaques that are characteristic of Alzheimer's disease.
This aggregation assay was validated using both ^125I-Aβ1-40 and fluo-Aβ1-40 in a buffer containing 50 mM HEPES, pH 7.4, 0.1% BSA, 10% FCS and protease inhibitors.
To each well of a 96-well Synthaloid plate was added 100 nM of fluo-Aβ1-40 in 100 μl. To each well was then added 10 μM of test compound. The plate was then allowed to incubate for 2.5 hr at room temperature. At the end of the incubation, unbound protein in the wells was removed by three washes using the buffer as described above. The amount of bound protein (which represents the amount of Aβ aggregation) was measured either by fluorescence measurements.
Higher fluorescence values relative to vehicle wells were interpreted as an indication of greater Aβ aggregation. […] Higher % values in the data in Table 4 below, below indicates greater effectiveness at preventing aggregation.
as §1

T1 sequence (P05067 672-711): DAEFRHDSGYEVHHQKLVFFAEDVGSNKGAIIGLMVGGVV

SMILES	Inhibition of acetylcholine release [1]	Aβ aggregation inhibition (%) [2]
O=C1OC2(CN3CCC2CC3)C(=O)N1c1cc(Cl)ccc1Cl (stereo not drawn) [Compound 12, 3′-(2,5-dichlorophenyl)-quinuclidine-3-spiro-5′-oxazolidine-2′,4′-dione trifluoroacetate salt]	17%	85%
O=C1OC2(CN3CCC2CC3)C(=O)N1c1cc(C(F)(F)F)cc(C(F)(F)F)c1 (stereo not drawn) [Compound 8, 3′-(3,5-bis(trifluoromethyl)phenyl)-quinuclidine-3-spiro-5′-oxazolidine-2′,4′-dione trifluoroacetate salt]	77%	0%
O=C1OC2(CN3CCC2CC3)C(=O)N1c1cccc(Cl)c1 (stereo not drawn) [Compound 10, 3′-(3-chlorophenyl)-quinuclidine-3-spiro-5′-oxazolidine-2′,4′-dione trifluoroacetate salt]	60%	50%
O=C1OC2(CN3CCC2CC3)C(=O)N1c1ccc(Cl)c(Cl)c1 (stereo not drawn) [Compound 5, 3′-(3,4-dichlorophenyl)-quinuclidine-3-spiro-5′-oxazolidine-2′,4′-dione trifluoroacetate salt]	27%	98%
CCOC(=O)c1cccc(N2C(=O)OC3(CN4CCC3CC4)C2=O)c1 (stereo not drawn) [Compound 13, 3′-(3-ethoxycarbonylphenyl)-quinuclidine-3-spiro-5′-oxazolidine-2′,4′-dione trifluoroacetate salt]	20%	100%
COc1ccc(N2C(=O)OC3(CN4CCC3CC4)C2=O)cc1 (stereo not drawn) [Compound 3, 3′-(4-methoxyphenyl)-quinuclidine-3-spiro-5′-oxazolidine-2′,4′-dione trifluoroacetate salt]	27%	100%
N=C1CC2(CN3CCC2CC3)OC(=O)N1c1ccc(Cl)c(Cl)c1 (stereo not drawn) [Compound 104, 3′-(3,4-dichlorophenyl)-quinuclidine-3-spiro-4′-iminooxan-2-ones trifluoroacetate salt]	43%	0%
O=C1OC2(CN3CCC2CC3)C(=O)N1c1cccc(C(F)(F)F)c1 (stereo not drawn) [Compound 1, 3′-(3-trifluoromethylphenyl)-quinuclidine-3-spiro-5′-oxazolidine-2′,4′-dione trifluoroacetate salt]	36%	100%
O=C1OC2(CN3CCC2CC3)C(=O)N1c1cccc(O)c1 (stereo not drawn) [Compound 15, 3′-(3-hydroxyphenyl)-quinuclidine-3-spiro-5′-oxazolidine-2′,4′-dione trifluoroacetate salt]	55%	50%
Cc1cccc(N2C(=O)OC3(CN4CCC3CC4)C2=O)c1C (stereo not drawn) [Compound 27, 3′-(2,3-dimethylphenyl)-quinuclidine-3-spiro-5′-oxazolidine-2′,4′-dione trifluoroacetate salt]	25%	35%
Cc1ccc(C)c(N2C(=O)OC3(CN4CCC3CC4)C2=O)c1 (stereo not drawn) [Compound 11, 3′-(2,5-dimethyphenyl)-quinuclidine-3-spiro-5′-oxazolidine-2′,4′-dione trifluoroacetate salt]	71%	0%
COc1ccc(N2C(=O)OC3(CN4CCC3CC4)C2=O)c(C)c1 (stereo not drawn) [Compound 4, 3′-(4-methoxy-2-methylphenyl)-quinuclidine-3-spiro-5′-oxazolidine-2′,4′-dione trifluoroacetate salt]	36%	95%
N=C1CC2(CN3CCC2CC3)OC(=O)N1c1cccc(Cl)c1 (stereo not drawn) [Compound 108, 3′-(3-chlorophenyl)-quinuclidine-3-spiro-4′-iminooxan-2-ones trifluoroacetate salt]	63%	70%
O=C1OC2(CN3CCC2CC3)C(=O)N1c1ccc(F)cc1F (stereo not drawn) [Compound 21, 3′-(2,4-difluorophenyl)-quinuclidine-3-spiro-5′-oxazolidine-2′,4′-dione trifluoroacetate salt]	17%	1%
Cc1cc(C)cc(N2C(=N)CC3(CN4CCC3CC4)OC2=O)c1 (stereo not drawn) [Compound 106, 3′-(3,5-dimethylphenyl)-quinuclidine-3-spiro-4′-iminooxan-2-ones trifluoroacetate salt]	18%	80%
O=C1OC2(CN3CCC2CC3)C(=O)N1c1ccc(O)cc1 (stereo not drawn) [Compound 18, 3′-(4-hydroxyphenyl)-quinuclidine-3-spiro-5′-oxazolidine-2′,4′-dione trifluoroacetate salt]	23%	0%
Cc1ccc(N2C(=O)OC3(CN4CCC3CC4)C2=O)cc1Cl (stereo not drawn) [Compound 24, 3′-(3-chloro-4-methylphenyl)-quinuclidine-3-spiro-5′-oxazolidine-2′,4′-dione trifluoroacetate salt]	44%	40%
CC(C)c1ccccc1N1C(=O)OC2(CN3CCC2CC3)C1=O (stereo not drawn) [Compound 28, 3′-(2-isopropylphenyl)-quinuclidine-3-spiro-5′-oxazolidine-2′,4′-dione trifluoroacetate salt]	47%	0%
Cc1ccc(N2C(=O)OC3(CN4CCC3CC4)C2=O)cc1C (stereo not drawn) [Compound 16, 3′-(3,4-dimethylphenyl)-quinuclidine-3-spiro-5′-oxazolidine-2′,4′-dione trifluoroacetate salt]	44%	67%
Cc1ccc(N2C(=N)CC3(CN4CCC3CC4)OC2=O)cc1 (stereo not drawn) [Compound 101, 3′-(4-methylphenyl)-quinuclidine-3-spiro-4′-iminooxan-2-ones trifluoroacetate salt]	24%	27%
Cc1ccccc1N1C(=O)OC2(CN3CCC2CC3)C1=O (stereo not drawn) [Compound 26, 3′-(2-methylphenyl)-quinuclidine-3-spiro-5′-oxazolidine-2′,4′-dione trifluoroacetate salt]	54%	45%
COc1ccc(OC)c(N2C(=O)OC3(CN4CCC3CC4)C2=O)c1 (stereo not drawn) [Compound 29, 3′-(2,5-dimethoxyphenyl)-quinuclidine-3-spiro-5′-oxazolidine-2′,4′-dione trifluoroacetate salt]	20%	100%
Cc1ccc(N2C(=O)OC3(CN4CCC3CC4)C2=O)cc1 (stereo not drawn) [Compound 2, 3′-(4-methylphenyl)-quinuclidine-3-spiro-5′-oxazolidine-2′,4′-dione trifluoroacetate salt]	74%	44%
O=C1OC2(CN3CCC2CC3)C(=O)N1c1cc(Cl)cc(Cl)c1 (stereo not drawn) [Compound 7, 3′-(3,5-dichlorophenyl)-quinuclidine-3-spiro-5′-oxazolidine-2′,4′-dione trifluoroacetate salt]	70%	62%

Source: patent publication US20070004715A1, “Novel spiro-quinuclidinyl derivatives for the treatment of central nervous system disorders” (priority 2005, published 2007)
